Target: T1, glucocorticoid receptor (Homo sapiens, UniProt P04150)
T1 construct: endogenous in cells; ATCC cat
T1 sequence (P04150 1-777): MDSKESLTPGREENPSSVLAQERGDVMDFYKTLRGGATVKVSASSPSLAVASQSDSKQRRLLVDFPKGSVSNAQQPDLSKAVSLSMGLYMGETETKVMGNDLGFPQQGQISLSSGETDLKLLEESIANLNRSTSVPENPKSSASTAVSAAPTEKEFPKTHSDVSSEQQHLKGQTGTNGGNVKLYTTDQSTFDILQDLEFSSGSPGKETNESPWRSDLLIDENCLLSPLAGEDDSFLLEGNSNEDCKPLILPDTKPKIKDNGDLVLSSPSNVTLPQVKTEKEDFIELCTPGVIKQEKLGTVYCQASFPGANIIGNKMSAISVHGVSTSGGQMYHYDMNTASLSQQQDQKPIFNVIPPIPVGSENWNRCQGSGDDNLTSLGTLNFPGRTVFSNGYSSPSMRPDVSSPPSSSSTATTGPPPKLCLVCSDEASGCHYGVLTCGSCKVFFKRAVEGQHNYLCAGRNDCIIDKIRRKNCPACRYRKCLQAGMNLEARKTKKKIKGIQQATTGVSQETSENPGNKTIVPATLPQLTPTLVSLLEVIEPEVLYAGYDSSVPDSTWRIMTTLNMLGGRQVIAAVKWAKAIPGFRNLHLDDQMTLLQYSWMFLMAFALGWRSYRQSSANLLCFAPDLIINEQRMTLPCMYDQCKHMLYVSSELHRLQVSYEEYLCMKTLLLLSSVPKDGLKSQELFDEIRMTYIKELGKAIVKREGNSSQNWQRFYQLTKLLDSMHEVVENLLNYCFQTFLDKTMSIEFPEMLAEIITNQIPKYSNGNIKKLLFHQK
Test: Hep G2 TAT Ki: inhibition of dexamethasone-induced TAT in HepG2 cells (96 well)
Assay type: cell-based
Details: challenge of 100 nM dexamethasone, IC50 converted to Ki by Cheng and Prusoff equation
How it was run: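 Cells lysed 15 min at 4 °C; TAT enzyme reaction 2 h at 37 °C, stopped with KOH, 30 min further at 37 °C. Inhibition fitted to 4-parameter logistic.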

Ki	SMILES
520 nM	Cc1cc2c(cnn2-c2ccc(F)cc2)cc1C1CN(S(=O)(=O)c2cnn(C)n2)CCN1CC1COC1 (stereo not shown) [Example 16, 1-(4-fluorophenyl)-6-methyl-5-(4-((2-methyl-2H-1,2,3-triazol-4-yl)sulfonyl)-1-(oxetan-3-ylmethyl)piperazin-2-yl)-1H-indazole]
64 nM	Cc1cc2c(cnn2-c2ccc(F)cc2)cc1C1CN(S(=O)(=O)CC2CCOCC2)CCN1CC(C)C (single isomer, unassigned) [Example 61, 1-(4-fluorophenyl)-5-(1-isobutyl-4-(((tetrahydro-2H-pyran-4-yl)methyl)sulfonyl)piperazin-2-yl)-6-methyl-1H-indazole]
81 nM	Cc1cc2c(cnn2-c2ccc(=O)n(C)c2)cc1C1CN(S(=O)(=O)c2cnn(C)n2)CCN1CCC(F)(F)F (stereo not shown) [Example 165, 1-methyl-5-(6-methyl-5-(4-((2-methyl-2H-1,2,3-triazol-4-yl)sulfonyl)-1-(3,3,3-trifluoropropyl)piperazin-2-yl)-1H-indazol-1-yl)pyridin-2(1H)-one]
28 nM	COCCS(=O)(=O)N1CCN(CC(C)C)C(c2cc3cnn(-c4ccc(F)cc4)c3cc2C)C1 (single isomer, unassigned) [Example 60, 1-(4-fluorophenyl)-5-(1-isobutyl-4-((2-methoxyethyl)sulfonyl)piperazin-2-yl)-6-methyl-1H-indazole]
93 nM	Cc1cc2c(cnn2-c2ccc(F)cc2)cc1C1CN(S(=O)(=O)C2CCOCC2)CCN1CC(C)C (stereo not shown) [Example 44, 1-(4-fluorophenyl)-5-(1-isobutyl-4-((tetrahydro-2H-pyran-4-yl)sulfonyl)piperazin-2-yl)-6-methyl-1H-indazole]
46 nM	CCn1cc(S(=O)(=O)N2CCN(CC(C)C)C(c3cc4cnn(-c5ccc(F)cc5)c4cc3C)C2)cn1 (stereo not shown) [Example 38, 5-(4-((1-ethyl-1H-pyrazol-4-yl)sulfonyl)-1-isobutylpiperazin-2-yl)-1-(4-fluorophenyl)-6-methyl-1H-indazole]
430 nM	CC(=O)N1CCN(S(=O)(=O)c2cnn(C)n2)CC1c1cc2cnn(-c3ccc(F)cc3)c2cc1C (stereo not shown) [Example 34, 1-(2-(1-(4-fluorophenyl)-6-methyl-1H-indazol-5-yl)-4-((2-methyl-2H-1,2,3-triazol-4-yl)sulfonyl)piperazin-1-yl)ethan-1-one]
19 nM	Cc1cc2c(cnn2-c2ccc(F)cc2)cc1C1CN(S(=O)(=O)c2cnn(C)c2C)CCN1CC(C)C (single isomer, unassigned) [Example 57, 5-(4-((1,5-dimethyl-1H-pyrazol-4-yl)sulfonyl)-1-isobutylpiperazin-2-yl)-1-(4-fluorophenyl)-6-methyl-1H-indazole]
66 nM	Cc1cc2c(cnn2-c2ccc(F)c(C#N)c2)cc1C1CN(S(=O)(=O)c2cnn(C)n2)CCN1CCC(F)(F)F (single isomer, unassigned) [Example 169, 2-fluoro-5-(6-methyl-5-(4-((2-methyl-2H-1,2,3-triazol-4-yl)sulfonyl)-1-(3,3,3-trifluoropropyl)piperazin-2-yl)-1H-indazol-1-yl)benzonitrile]
14 nM	Cc1cc2c(cnn2-c2ccc(F)cc2)cc1[C@@H]1CN(S(=O)(=O)c2cnn(C)n2)CCN1CCC(F)(F)F [Example 84, (R)-1-(4-fluorophenyl)-6-methyl-5-(4-((2-methyl-2H-1,2,3-triazol-4-yl)sulfonyl)-1-(3,3,3-trifluoropropyl)piperazin-2-yl)-1H-indazole]
11 nM	CO[C@H]1C[C@@H](CN2CCN(S(=O)(=O)c3cnn(C)n3)C[C@H]2c2cc3cnn(-c4ccc(F)cc4)c3cc2C)C1 (relative stereo) [Example 155, 1-(4-fluorophenyl)-5-(1-((3-methoxycyclobutyl)methyl)-4-((2-methyl-2H-1,2,3-triazol-4-yl)sulfonyl)piperazin-2-yl)-6-methyl-1H-indazole]
39 nM	Cc1cc2c(cnn2-c2ccc(F)cc2)cc1C1CN(S(=O)(=O)c2ccc(C(F)(F)F)nc2)CCN1CC(C)C (single isomer, unassigned) [Example 102, 1-(4-fluorophenyl)-5-(1-isobutyl-4-((6-(trifluoromethyl)pyridin-3-yl)sulfonyl)piperazin-2-yl)-6-methyl-1H-indazole]
130 nM	Cc1cc2c(cnn2-c2ccc(F)cc2)cc1C1CN(S(=O)(=O)c2ccn(C)n2)CCN1CC(C)C (single isomer, unassigned) [Example 20, 1-(4-fluorophenyl)-5-(1-isobutyl-4-((1-methyl-1H-pyrazol-3-yl)sulfonyl)piperazin-2-yl)-6-methyl-1H-indazole]
62 nM	Cc1cc2c(cnn2-c2ccc(F)cc2)cc1C1CN(S(=O)(=O)c2cnn(C)c2)CCN1CC(C)C (stereo not shown) [Example 7, 1-(4-fluorophenyl)-5-(1-isobutyl-4-((1-methyl-1H-pyrazol-4-yl)sulfonyl)piperazin-2-yl)-6-methyl-1H-indazole]
13 nM	Cc1cc2c(cnn2-c2ccc(F)cc2)cc1C1CN(S(=O)(=O)c2cnn(C)c2C)CCN1CC(C)C(F)(F)F (single isomer, unassigned) [Example 142, 5-(4-((1,5-dimethyl-1H-pyrazol-4-yl)sulfonyl)-1-(3,3,3-trifluoro-2-methylpropyl)piperazin-2-yl)-1-(4-fluorophenyl)-6-methyl-1H-indazole]
13 nM	CCn1cc(S(=O)(=O)N2CCN(CCC(F)(F)F)C(c3cc4cnn(-c5ccc(F)cc5)c4cc3C)C2)cn1 (single isomer, unassigned) [Example 131, 5-(4-((1-ethyl-1H-pyrazol-4-yl)sulfonyl)-1-(3,3,3-trifluoropropyl)piperazin-2-yl)-1-(4-fluorophenyl)-6-methyl-1H-indazole]
85 nM	COc1ccc(CN2CCN(S(=O)(=O)c3cnn(C)n3)CC2c2cc3cnn(-c4ccc(F)cc4)c3cc2C)cc1 (stereo not shown) [Example 3, 1-(4-fluorophenyl)-5-(1-(4-methoxybenzyl)-4-((2-methyl-2H-1,2,3-triazol-4-yl)sulfonyl)piperazin-2-yl)-6-methyl-1H-indazole]
25 nM	Cc1cc2c(cnn2-c2ccc(F)cc2)cc1C1CN(S(=O)(=O)c2ccc(C#N)cc2)CCN1CC(C)C(F)(F)F (single isomer, unassigned) [Example 143, 4-((3-(1-(4-fluorophenyl)-6-methyl-1H-indazol-5-yl)-4-(3,3,3-trifluoro-2-methylpropyl)piperazin-1-yl)sulfonyl)benzonitrile]
32 nM	Cc1cc2c(cnn2-c2ccc(F)cc2)cc1C1CN(S(=O)(=O)c2cnn(C)n2)CCN1CC1CC1(F)F (single isomer, unassigned) [Example 160, 5-(1-((2,2-difluorocyclopropyl)methyl)-4-((2-methyl-2H-1,2,3-triazol-4-yl)sulfonyl)piperazin-2-yl)-1-(4-fluorophenyl)-6-methyl-1H-indazole]
47 nM	Cc1cc2c(cnn2-c2ccc(F)cc2)cc1C1CN(S(=O)(=O)C2CCC2)CCN1CCC(F)(F)F (single isomer, unassigned) [Example 140, 5-(4-(cyclobutylsulfonyl)-1-(3,3,3-trifluoropropyl)piperazin-2-yl)-1-(4-fluorophenyl)-6-methyl-1H-indazole]
59 nM	Cc1cc2c(cnn2-c2cccnc2)cc1C1CN(S(=O)(=O)c2cnn(C)n2)CCN1CCC(F)(F)F (stereo not shown) [Example 167, 6-methyl-5-(4-((2-methyl-2H-1,2,3-triazol-4-yl)sulfonyl)-1-(3,3,3-trifluoropropyl)piperazin-2-yl)-1-(pyridin-3-yl)-1H-indazole]
45 nM	Cc1cc2c(cnn2-c2ccc(F)cc2)cc1[C@@H]1CN(S(=O)(=O)c2cnn(C)n2)CCN1C[C@H](C)F (racemic) [Example 158, 1-(4-fluorophenyl)-5-(1-(2-fluoropropyl)-4-((2-methyl-2H-1,2,3-triazol-4-yl)sulfonyl)piperazin-2-yl)-6-methyl-1H-indazole]
65 nM	Cc1cc2c(cnn2-c2ccc(F)cc2)cc1C1CN(S(=O)(=O)C2COC2)CCN1CC(C)C (single isomer, unassigned) [Example 111, 1-(4-fluorophenyl)-5-(1-isobutyl-4-(oxetan-3-ylsulfonyl)piperazin-2-yl)-6-methyl-1H-indazole]
12 nM	Cc1cc2c(cnn2-c2ccc(F)cc2)cc1C1CN(S(=O)(=O)c2nccs2)CCN1CC(C)C (single isomer, unassigned) [Example 109, 2-((3-(1-(4-fluorophenyl)-6-methyl-1H-indazol-5-yl)-4-isobutylpiperazin-1-yl)sulfonyl)thiazole]
110 nM	CC(C)=CCN1CCN(S(=O)(=O)c2cnn(C)n2)CC1c1cc2cnn(-c3ccc(F)cc3)c2cc1C (stereo not shown) [Example 17, 1-(4-fluorophenyl)-6-methyl-5-(4-((2-methyl-2H-1,2,3-triazol-4-yl)sulfonyl)-1-(3-methylbut-2-en-1-yl)piperazin-2-yl)-1H-indazole]

Source: patent US12098144B2, “Piperazine indazole glucocorticoid receptor antagonists” (Corcept Therapeutics Incorporated, priority 2021, dated 2024)
